According to BindingDB's records for patent US11478460 (Chemocentryx, 2022):
pIC50: −log10 of the molar value.

Target: T1, C5a anaphylatoxin chemotactic receptor 1 (Homo sapiens, UniProt P21730)
T1 sequence (P21730 whole entry): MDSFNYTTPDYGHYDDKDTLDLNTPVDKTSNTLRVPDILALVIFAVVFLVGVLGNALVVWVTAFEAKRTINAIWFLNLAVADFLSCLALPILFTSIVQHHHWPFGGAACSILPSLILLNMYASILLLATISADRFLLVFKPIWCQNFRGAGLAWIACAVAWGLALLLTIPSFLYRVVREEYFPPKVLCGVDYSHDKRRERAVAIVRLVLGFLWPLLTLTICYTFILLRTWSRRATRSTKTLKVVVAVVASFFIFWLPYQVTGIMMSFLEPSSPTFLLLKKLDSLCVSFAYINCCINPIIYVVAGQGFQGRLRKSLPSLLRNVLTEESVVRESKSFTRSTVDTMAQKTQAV
Assay: chemotaxis assay
Method: Optionally, compounds may be further assayed for their ability to inhibit chemotaxis in cells. Chemotaxis assays are performed using 5 μm pore polycarbonate, polyvinylpyrrolidone-coated filters in 96-well chemotaxis chambers (Neuroprobe; Gaithersburg, Md.) using chemotaxis buffer (Hank's balanced salt solution (HBSS) and 1% FBS). C5aR ligands (i.e., C5a, R&D Systems; Minneapolis, Minn.) are use to evaluate compound mediated inhibition of C5aR mediated migration. Other chemokines (i.e., SDF-1α; R&D Systems; Minneapolis, Minn.) are used as specificity controls. The lower chamber is loaded with 29 μl of chemokine (i.e., 0.03 nM C5a) and varying amounts of compound; the top chamber contains 100,000 U937 or neutrophil cells in 20 μl. The chambers are incubated 1.5 hours at 37° C., and the number of cells in the lower chamber quantified either by direct cell counts in five high powered fields per well or by the CyQuant assay (Molecular Probes), a fluorescent dye method that measures nucleic acid content and microscopic observation.

Compound | pIC50
Cc1cccc(OCC(C)C)c1-n1nc2c(c1-c1ccc(NC(N)=O)cc1)CN(c1cccc(C(C)(C)C)n1)CC2 [US11478460, Compound 1.394] | > 8.30
Cc1cccc(OCC(C)C)c1-n1nc2c(c1-c1ccc(NC(N)=O)c(F)c1)CN(c1ncc(Cl)cc1F)CC2 [US11478460, Compound 1.250] | > 8.30
